Measurements from the supplement of paper PMC11061612.

Assays:
Assay in all cases: Bliss excess, mean over the matrix (fraction); higher = more synergy
[1] = test system: A253 (Head and Neck Carcinoma)
Method in brief: (§1)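 After 24 hours at 37°C and 5% CO2 in 1536-well plates, cells in DMEM/F12 or RPMI plus 10% FBS received two-drug dose matrices for 72 hours. Viability came from CellTiter-Glo 2.0 luminescence and was scaled as inhibition, anchored at 0 by vehicle wells and at 1 by blank wells. Combination Emax is taken as the second-highest inhibition in the matrix, and Bliss excess as the observed combination effect less EA + EB − EA·EB, with EA and EB the single-agent effects.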

[2] = test system: 22RV1 (Prostate Carcinoma)
Method in brief: as §1

[3] = test system: G-402 (Other Solid Carcinomas)
Method in brief: as §1

[4] = test system: GA-10 (Burkitt's Lymphoma)
Method in brief: as §1

[5] = test system: CA46 (Burkitt's Lymphoma)
Method in brief: as §1

[6] = test system: KYSE-140 (Esophageal Squamous Cell Carcinoma)
Method in brief: as §1

[7] = test system: OACp4C (Esophageal Adenocarcinoma)
Method in brief: as §1

[8] = test system: CESS (Acute Myeloid Leukemia)
Method in brief: as §1

[9] = test system: JVM-2 (B-Cell Non-Hodgkin's Lymphoma)
Method in brief: as §1

IM-9 (Non-Cancerous) = test system: IM-9 (Non-Cancerous)
Method in brief: as §1

AU565 (Breast Carcinoma) = test system: AU565 (Breast Carcinoma)
Method in brief: as §1

[10] = test system: JIMT-1 (Breast Carcinoma)
Method in brief: as §1

[11] = test system: LS-411N (Colorectal Carcinoma)
Method in brief: as §1

[12] = test system: MHH-ES-1 (Ewing's Sarcoma)
Method in brief: as §1

[13] = test system: ESO26 (Esophageal Adenocarcinoma)
Method in brief: as §1

A101D (Melanoma) = test system: A101D (Melanoma)
Method in brief: as §1

[14] = test system: HCC1395 (Breast Carcinoma)
Method in brief: as §1

5637 (Bladder Carcinoma) = test system: 5637 (Bladder Carcinoma)
Method in brief: as §1

[15] = test system: GCT (Other Solid Carcinomas)
Method in brief: as §1

EW-16 (Ewing's Sarcoma) = test system: EW-16 (Ewing's Sarcoma)
Method in brief: as §1

Structure (SMILES)	Bliss excess [1]	Bliss excess [2]	Bliss excess [3]	Bliss excess [4]	Bliss excess [5]	Bliss excess [6]	Bliss excess [7]	Bliss excess [8]	Bliss excess [9]	Bliss excess (IM-9 (Non-Cancerous))	Bliss excess (AU565 (Breast Carcinoma))	Bliss excess [10]	Bliss excess [11]	Bliss excess [12]	Bliss excess [13]	Bliss excess (A101D (Melanoma))	Bliss excess [14]	Bliss excess (5637 (Bladder Carcinoma))	Bliss excess [15]	Bliss excess (EW-16 (Ewing's Sarcoma))
CC1(C)CCC(CN2CCN(c3ccc(C(=O)NS(=O)(=O)c4ccc(NCC5CCOCC5)c([N+](=O)[O-])c4)c(Oc4cnc5[nH]ccc5c4)c3)CC2)=C(c2ccc(Cl)cc2)C1 [Venetoclax] + C[C@@H](Nc1cc(F)cc(F)c1)c1cc(C(=O)N(C)C)cc2c(=O)cc(N3CCOCC3)oc12 [AZD8186] (first compound max 1 µM, 7x7, partner max 3 µM)	-0.0364	-0.0172	-0.0612	-0.0088	0.0323	-0.0149	0.0104	-0.0244	0.0354	-0.0608	-0.0033	-0.0411	0.0099	-0.0248	-0.0277	0.0305	0.0107	-0.0273	-0.0154	-0.0278
COc1nnc2ccc(N3CCC(c4ccc(OCCN5CCN(C)C(=O)[C@H]5C)cc4)CC3)nn12 [AZD5153] + Cc1c2c(nn1C)CSCc1cc(n(C)n1)CSc1cc(c3ccccc3c1)OCCCc1c(C(=O)O)n(C)c3c-2c(Cl)ccc13 [AZD5991] (first compound max 1 µM, 7x7, partner max 1 µM)	0.0071	0.0107	0.044	-0.0598	-0.0502	-0.124	0.0438	-0.0124	-0.0404	-0.127	-0.0342	0.0155	0.0068	-0.0049	-0.0071	0.0406	-0.0112	-0.0555	-0.0425	-0.0412
COc1cccc(OCCCN)c1-c1cc(Nc2cnc(C#N)cn2)n[nH]1 [Prexasertib] + Cc1cc2ncnn2cc1Nc1ncc2c(n1)n(C1CCOCC1)c(=O)n2C [AZD7648] (first compound max 1 µM, 7x7, partner max 10 µM)	-0.0228	-0.0316	-0.0602	-0.0051	-0.0182	-0.0066	0.0093	0.0409	0.0171	-0.014	0.0086	-0.0205	-0.0082	-0.004	0.0142	0.0232	-0.0527	-0.0423	0.0365	0.0156
CCN(CCO)CCCOc1ccc2c(Nc3cc(CC(=O)Nc4cccc(F)c4)[nH]n3)ncnc2c1 [AZD2811] + C[C@@H]1COCCN1C2=NC(=NC(=C2)C3(CC3)[S@](=N)(=O)C)C4=C5C=CNC5=NC=C4 [AZD6738] (first compound max 1 µM, 7x7, partner max 10 µM)	-0.0471	-0.103	-0.0703	-0.057	-0.0698	0.0008	0	-0.0259	-0.0809	-0.0441	-0.002	-0.0203	-0.0366	-0.0145	-0.0427	-0.0414	-0.0579	-0.0712	-0.0318	-0.018
COc1cccc(OCCCN)c1-c1cc(Nc2cnc(C#N)cn2)n[nH]1 [Prexasertib] + C[C@@H]1COCCN1C2=NC(=NC(=C2)C3(CC3)[S@](=N)(=O)C)C4=C5C=CNC5=NC=C4 [AZD6738] (first compound max 1 µM, 7x7, partner max 10 µM)	-0.0334	0.0209	-0.0253	-0.0023	-0.0755	-0.0191	-0.0882	-0.0065	-0.0625	-0.003	-0.0612	0.0026	-0.0349	-0.0161	-0.0681	-0.0066	-0.0399	-0.0304	-0.0001	0.0053
CN(C)CCCOc1ccc(-c2ccc3ncc4c(c3c2)n(C2CCOCC2)c(=O)n4C)cn1 [AZD0156] + C=CCn1c(=O)c2cnc(Nc3ccc(N4CCN(C)CC4)cc3)nc2n1-c1cccc(C(C)(C)O)n1 [AZD1775] (first compound max 1 µM, partner max 1 µM)	-0.0389	-0.095	-0.0501	0.026	-0.0283	-0.0031	-0.0245	-0.0059	-0.0372	0.007	-0.016	-0.0287	-0.0042	-0.0402	-0.0322	-0.0616	-0.0648	-0.0851	-0.0811	-0.0464
NC1(C(=O)N[C@@H](CCO)c2ccc(Cl)cc2)CCN(c2ncnc3[nH]ccc23)CC1 [Capivasertib] + CC(C)n1c(=O)n(C)c2cnc3cc(F)c(-c4ccc(OCCCN5CCCCC5)nc4)cc3c21 [AZD1390] (first compound max 10 µM, 7x7, partner max 0.3 µM)	-0.0597	-0.0886	-0.0731	-0.028	-0.049	-0.033	-0.0479	-0.0835	-0.0662	-0.0516	-0.025	-0.0118	-0.0267	-0.0515	-0.053	-0.118	0.0154	-0.052	-0.0509	-0.079
CCN(CCO)CCCOc1ccc2c(Nc3cc(CC(=O)Nc4cccc(F)c4)[nH]n3)ncnc2c1 [AZD2811] + O=C(c1cc(Cc2n[nH]c(=O)c3ccccc23)ccc1F)N1CCN(C(=O)C2CC2)CC1 [Olaparib] (first compound max 1 µM, 7x7, partner max 10 µM)	0.0485	0.0017	-0.0281	-0.0469	0.02	0.0429	-0.0304	0.0591	-0.125	-0.0191	-0.011	-0.0127	-0.0082	-0.0214	-0.0311	-0.0005	-0.0546	-0.0349	0.0585	0.0661
CC1(C)CCC(CN2CCN(c3ccc(C(=O)NS(=O)(=O)c4ccc(NCC5CCOCC5)c([N+](=O)[O-])c4)c(Oc4cnc5[nH]ccc5c4)c3)CC2)=C(c2ccc(Cl)cc2)C1 [Venetoclax] + C[C@@H]1COCCN1C2=NC(=NC(=C2)C3(CC3)[S@](=N)(=O)C)C4=C5C=CNC5=NC=C4 [AZD6738] (first compound max 1 µM, 7x7, partner max 10 µM)	-0.0372	-0.0368	-0.0004	-0.0281	0.0093	-0.0185	-0.0418	-0.0075	-0.0035	0.0201	0.0024	-0.0643	-0.0311	0.0077	-0.0101	-0.0313	-0.0671	-0.048	-0.112	-0.0607
CC1(C)CCC(CN2CCN(c3ccc(C(=O)NS(=O)(=O)c4ccc(NCC5CCOCC5)c([N+](=O)[O-])c4)c(Oc4cnc5[nH]ccc5c4)c3)CC2)=C(c2ccc(Cl)cc2)C1 [Venetoclax] + CCN(CCO)CCCOc1ccc2c(Nc3cc(CC(=O)Nc4cccc(F)c4)[nH]n3)ncnc2c1 [AZD2811] (first compound max 1 µM, 7x7, partner max 1 µM)	0.046	-0.001	-0.0036	0.0033	-0.0283	-0.0045	-0.0234	0.0083	0.051	0.0275	0.0097	-0.0232	-0.0284	0.0824	-0.0262	-0.0182	-0.01	-0.0229	-0.004	0.0619
NC1(C(=O)N[C@@H](CCO)c2ccc(Cl)cc2)CCN(c2ncnc3[nH]ccc23)CC1 [Capivasertib] + CC(=O)c1c(C)c2cnc(Nc3ccc(N4CCNCC4)cn3)nc2n(C2CCCC2)c1=O [Palbociclib] (first compound max 10 µM, 7x7, partner max 10 µM)	-0.0709	0.0306	-0.0357	-0.0029	0.0033	-0.0427	-0.0239	-0.0306	-0.036	0.0229	0.0521	-0.0115	-0.0119	0.0257	-0.0512	0.0157	0.0116	-0.0521	-0.0569	0.0029
COc1cccc(OCCCN)c1-c1cc(Nc2cnc(C#N)cn2)n[nH]1 [Prexasertib] + C=CCn1c(=O)c2cnc(Nc3ccc(N4CCN(C)CC4)cc3)nc2n1-c1cccc(C(C)(C)O)n1 [AZD1775] (first compound max 1 µM, partner max 1 µM)	0.0877	0.06	0.0504	0.0653	0.0924	0.0329	-0.0189	-0.0059	-0.0174	0.0644	0.0991	0.032	-0.0017	0.0402	0.0278	0.0932	0.0111	0.0167	0.0294	0.155
